Test results as given in patent US20250026743A1, “HETEROARYL-LINKED ANALOGS AS MGLU5 NEGATIVE ALLOSTERIC MODULATORS AND METHODS OF MAKING AND USING THE SAME” (Vanderbilt University, priority 2021, published 2025).
Like-named read-outs stand apart in the source and are kept apart here. Each block holds one compound with its values, some of them ahead of it.

Assays:
[1] = intravenous administration, rhesus monkeys; cited from earlier work
[2] = molecular target: T1, cytochrome P450 1A2 (Homo sapiens, UniProt P05177); settings: cited from earlier work
T1 sequence (P05177 1-516): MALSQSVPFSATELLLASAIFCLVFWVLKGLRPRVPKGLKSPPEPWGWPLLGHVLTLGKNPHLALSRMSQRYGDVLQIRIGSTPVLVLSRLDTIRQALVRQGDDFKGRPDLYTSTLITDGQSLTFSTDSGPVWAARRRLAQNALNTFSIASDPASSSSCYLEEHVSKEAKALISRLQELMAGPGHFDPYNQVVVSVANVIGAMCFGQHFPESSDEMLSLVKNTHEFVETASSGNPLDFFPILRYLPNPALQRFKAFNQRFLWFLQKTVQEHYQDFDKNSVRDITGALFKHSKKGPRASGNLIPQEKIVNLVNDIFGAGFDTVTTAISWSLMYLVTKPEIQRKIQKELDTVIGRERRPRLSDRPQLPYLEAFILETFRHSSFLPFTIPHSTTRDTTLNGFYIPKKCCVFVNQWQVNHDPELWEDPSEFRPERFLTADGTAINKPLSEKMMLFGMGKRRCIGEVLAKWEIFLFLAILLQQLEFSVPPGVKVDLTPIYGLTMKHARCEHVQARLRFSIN

[3] = system: N-methyl-D-aspartate (NMDA) receptor; settings: at higher concentrations; cited from earlier work
[4] = molecular target: mGlu4 (Homo sapiens, UniProt Q14833); settings: cited from earlier work
mGlu4, sequence (Q14833 33-912): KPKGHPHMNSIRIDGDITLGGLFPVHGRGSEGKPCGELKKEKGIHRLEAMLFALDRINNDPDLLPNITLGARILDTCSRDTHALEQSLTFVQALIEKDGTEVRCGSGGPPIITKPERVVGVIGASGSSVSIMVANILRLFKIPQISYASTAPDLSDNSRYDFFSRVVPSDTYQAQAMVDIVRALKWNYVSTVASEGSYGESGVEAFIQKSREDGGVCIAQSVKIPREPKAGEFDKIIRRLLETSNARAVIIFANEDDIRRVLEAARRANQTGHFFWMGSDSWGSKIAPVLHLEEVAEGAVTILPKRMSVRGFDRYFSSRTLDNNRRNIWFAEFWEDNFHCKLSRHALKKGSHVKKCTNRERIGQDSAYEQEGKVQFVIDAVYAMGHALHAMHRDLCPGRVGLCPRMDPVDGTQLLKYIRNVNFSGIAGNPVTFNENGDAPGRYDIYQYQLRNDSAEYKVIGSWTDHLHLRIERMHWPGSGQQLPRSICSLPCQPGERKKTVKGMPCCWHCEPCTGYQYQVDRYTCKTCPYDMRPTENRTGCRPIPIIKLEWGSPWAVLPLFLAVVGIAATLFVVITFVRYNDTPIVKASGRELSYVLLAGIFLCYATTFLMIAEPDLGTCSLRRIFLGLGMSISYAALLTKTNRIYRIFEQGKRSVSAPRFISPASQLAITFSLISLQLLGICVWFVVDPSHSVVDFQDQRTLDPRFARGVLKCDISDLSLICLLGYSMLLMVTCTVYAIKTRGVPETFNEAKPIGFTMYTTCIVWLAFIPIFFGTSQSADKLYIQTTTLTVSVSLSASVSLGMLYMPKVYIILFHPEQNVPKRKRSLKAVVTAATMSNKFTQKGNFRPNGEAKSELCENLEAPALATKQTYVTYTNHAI

[5] = molecular target: T2, hmGlu5 (Homo sapiens, UniProt P41594); experiment: mGlu5 Ca2+ flux assay in HEK 293A cells (negative allosteric modulation of glutamate EC80 response); assay type: cell-based; settings: for remaining activity at 30 µM: HEK293-A, read-out: hmGlu5 NAM Emin (%); for IC50: HEK 293A cells, Ca2+ flux, glutamate EC80, >10,000 = decrease without plateau, read-out: hmGlu5 NAM IC50
T2 construct: expressed in transfected cells; host or cells: HEK 293A
T2 sequence (P41594 21-1212): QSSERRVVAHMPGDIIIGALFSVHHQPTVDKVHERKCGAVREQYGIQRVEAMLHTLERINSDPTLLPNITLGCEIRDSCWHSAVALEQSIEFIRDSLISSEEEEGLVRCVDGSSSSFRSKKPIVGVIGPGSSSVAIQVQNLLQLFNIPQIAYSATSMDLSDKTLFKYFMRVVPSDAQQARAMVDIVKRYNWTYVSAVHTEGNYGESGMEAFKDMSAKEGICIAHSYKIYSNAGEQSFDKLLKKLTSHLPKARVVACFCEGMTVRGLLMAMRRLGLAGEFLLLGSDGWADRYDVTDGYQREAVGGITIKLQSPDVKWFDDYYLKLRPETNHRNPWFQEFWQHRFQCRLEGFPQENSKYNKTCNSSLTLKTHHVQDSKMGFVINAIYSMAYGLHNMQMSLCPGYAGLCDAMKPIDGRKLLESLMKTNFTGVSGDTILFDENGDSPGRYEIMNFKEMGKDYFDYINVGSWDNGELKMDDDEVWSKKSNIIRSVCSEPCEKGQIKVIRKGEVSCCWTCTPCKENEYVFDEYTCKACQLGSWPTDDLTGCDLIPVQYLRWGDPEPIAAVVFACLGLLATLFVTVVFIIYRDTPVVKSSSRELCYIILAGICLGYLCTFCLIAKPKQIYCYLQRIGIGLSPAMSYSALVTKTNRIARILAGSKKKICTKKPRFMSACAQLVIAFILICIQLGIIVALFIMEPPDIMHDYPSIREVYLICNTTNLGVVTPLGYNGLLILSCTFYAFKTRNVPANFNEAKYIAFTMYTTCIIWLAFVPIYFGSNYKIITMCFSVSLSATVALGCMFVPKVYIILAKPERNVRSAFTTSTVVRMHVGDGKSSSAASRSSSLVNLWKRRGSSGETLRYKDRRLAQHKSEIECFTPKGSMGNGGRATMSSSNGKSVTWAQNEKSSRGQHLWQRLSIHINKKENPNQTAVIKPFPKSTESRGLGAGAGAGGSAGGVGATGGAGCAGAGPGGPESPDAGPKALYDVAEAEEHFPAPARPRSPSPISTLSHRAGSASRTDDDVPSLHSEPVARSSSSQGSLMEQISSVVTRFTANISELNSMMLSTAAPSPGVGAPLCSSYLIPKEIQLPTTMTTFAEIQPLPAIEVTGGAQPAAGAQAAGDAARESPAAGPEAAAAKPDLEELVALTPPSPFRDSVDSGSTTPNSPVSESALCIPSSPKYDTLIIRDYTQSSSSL
Outline: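 HEK 293A cells stably expressing rat or human mGlu5, Fluo-4 AM loaded; compound added 2.3 min before glutamate EC20, then EC80; Ca2+ fluorescence peak amplitudes (F/F0) normalised to glutamate max. IC50 from 4-parameter logistic fit, 10-point 1:3 curves, top 30 μM; partial NAMs plateau above 10% Glu Max.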

SMILES: Cc1nc(C#Cc2cccnc2)cs1 [MTEP, 3-[(2-methyl-1,3-thiazol-4-yl)ethynyl]pyridine]
clearance [1]: efficiently cleared
inhibition of cytochrome P450 1A2 [2]: potent inhibitor

SMILES: Cc1cccc(C#Cc2ccccc2)n1 [MPEP, 2-methyl-6-(phenylethynyl) pyridine]
inhibition of NMDA receptor activity [3]: directly inhibit
modulation of mGlu4 [4]: positive allosteric modulator

remaining activity at 30 µM ([5]; % Glu max at 30 μM): 3%
IC50 [5]: 81 nM
SMILES: Cc1nc(-c2noc(-c3ccc(F)cc3)n2)cc(-c2cncc(F)c2)c1F [Compound 48, 3-(5,5′-difluoro-6′-methyl-[3,4′-bipyridin]-2′-yl)-5-(4-fluorophenyl)-1,2,4-oxadiazole]

SMILES: Cc1cccc(-c2nnc(-c3cc(-c4cncc(F)c4)c(F)c(C)n3)o2)n1 [Compound 58, 2-(5,5′-difluoro-6′-methyl-[3,4′-bipyridin]-2′-yl)-5-(6-methylpyridin-2-yl)-1,3,4-oxadiazole]
remaining activity at 30 µM [5]: 31%
IC50 [5]: > 10000 nM
